Laboratory results taken from patent publication EP2377520A1, “Pharmaceutical compound of prasugrel” (Ratiopharm GmbH, priority 2010, dated 2011).
Values after ≈ are worked out from the molar mass of the structure shown.

Experiments:
[1] = pH-dependent degradation; type: physicochemical; details: pH-Werte < 3; nach bereits 2 Stunden; read-out: Abbau
Excerpt: Darüber hinaus weist Prasugrel auch einen stark pH-abhängigen Abbau auf. Bei pH-Werten von < 3 ist ein Abbau von mehr als 1 % nach bereits 2 Stunden zu beobachten. Dies schränkt die möglichen Hilfsstoffe bei der Herstellung pharmazeutischer Formulierungen ein.

[2] = Solubility in water; type: physicochemical; details: in Wasser, freie Base, read-out: Löslichkeit
Description: Prasugrel wird als Plättchenaggregationshemmer oral verabreicht. Problematisch hierbei ist, dass es sich bei Prasugrel um einen schwer löslichen Wirkstoff handelt. Die freie Base des Wirkstoffs weist eine Löslichkeit von 57 µg/ml in Wasser auf, aber auch die Salze zeigen nur eine begrenzte Löslichkeit.

## CC(=O)Oc1cc2c(s1)CCN(C(C(=O)C1CC1)c1ccccc1F)C2 (centres unmarked) [Prasugrel, 2-Acetoxy-5-(a-cyclopropylcarbonyl-2-fluorbenzyl)-4,5,6,7-tetrahydrothieno[3,2-c]pyridin]
[1]
  degraded at 2 h: > 1%
[2]
  solubility: 57 µg/mL (≈ 153 µM)
